Like-named read-outs stand apart in the source and are kept apart here.
Experiments:
pirin [1] = biological target: T1, pirin (Homo sapiens, UniProt O00625); experiment: ITC; format: binding
T1 sequence (O00625 1-290): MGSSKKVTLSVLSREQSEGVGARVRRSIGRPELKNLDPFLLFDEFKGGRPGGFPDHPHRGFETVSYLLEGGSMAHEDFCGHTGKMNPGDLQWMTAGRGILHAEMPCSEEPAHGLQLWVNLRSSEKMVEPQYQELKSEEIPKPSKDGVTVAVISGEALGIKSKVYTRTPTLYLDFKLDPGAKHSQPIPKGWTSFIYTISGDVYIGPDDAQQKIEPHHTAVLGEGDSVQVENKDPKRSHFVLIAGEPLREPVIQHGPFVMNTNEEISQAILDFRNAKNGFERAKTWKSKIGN

pirin [2] = biological target: T1, pirin; experiment: ITC; format: binding; remark: listed apart in the source

| Structure (SMILES) | Kd (pirin [1]) [µM] | Kd (pirin [2]) [µM] |
| --- | --- | --- |
| O=C(Nc1ccc(Cl)cc1)C1CN(C(=O)c2cccc(-c3ccco3)c2)CC(F)(F)C1 (racemic) [CCG-222740] | 4.3 | – |
| O=C(Nc1ccc(Cl)cc1)C1CN(C(=O)c2cc(F)cc(-c3ccncc3)c2)CC(F)(F)C1 (centres unmarked) [CCG-257081] | – | 8.5 |
